Laboratory results: patent publication US11014896B2, “TRPA1 and TRPV4 inhibitors and methods of using the same for organ-specific inflammation and itch” (Duke University, priority 2014, dated 2021)
“Also recorded” adds a separate entry of the source.

How the values were obtained:
[1] = molecular target: T1, human TRPV1 (Homo sapiens, UniProt Q8NER1); test: Ca2+ signal in N2a cells transfected with human TRPV1; type: cell-based; settings: stimulation with 5 μM capsaicin
T1 construct: expressed in transfected cells; host or cells: N2a cells
T1 sequence (Q8NER1 whole entry): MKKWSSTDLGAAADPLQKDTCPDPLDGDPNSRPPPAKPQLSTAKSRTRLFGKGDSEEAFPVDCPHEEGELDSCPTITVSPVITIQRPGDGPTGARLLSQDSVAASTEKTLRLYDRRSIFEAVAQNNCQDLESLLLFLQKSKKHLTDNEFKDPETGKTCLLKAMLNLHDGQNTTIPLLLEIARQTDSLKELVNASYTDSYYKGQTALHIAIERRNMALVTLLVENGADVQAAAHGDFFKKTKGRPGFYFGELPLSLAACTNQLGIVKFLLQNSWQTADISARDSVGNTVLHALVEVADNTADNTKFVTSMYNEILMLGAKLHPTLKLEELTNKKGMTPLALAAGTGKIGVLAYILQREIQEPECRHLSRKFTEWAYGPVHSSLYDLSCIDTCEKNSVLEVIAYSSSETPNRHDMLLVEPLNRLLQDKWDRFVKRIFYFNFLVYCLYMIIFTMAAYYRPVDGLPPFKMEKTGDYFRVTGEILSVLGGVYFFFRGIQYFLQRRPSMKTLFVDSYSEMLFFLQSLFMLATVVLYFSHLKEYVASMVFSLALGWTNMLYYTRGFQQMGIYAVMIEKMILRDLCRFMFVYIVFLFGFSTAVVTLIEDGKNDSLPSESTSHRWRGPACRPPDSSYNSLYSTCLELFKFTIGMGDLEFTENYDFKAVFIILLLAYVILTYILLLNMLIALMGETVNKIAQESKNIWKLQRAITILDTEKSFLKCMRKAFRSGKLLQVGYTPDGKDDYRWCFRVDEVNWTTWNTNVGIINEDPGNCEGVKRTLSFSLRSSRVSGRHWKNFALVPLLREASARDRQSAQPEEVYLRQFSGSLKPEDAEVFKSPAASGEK
Procedure: (§1) Compounds were tested for their effect on TRPV1, TRPV2, and TRPV3. Methods were similar to those described in Example 15. Briefly, N2a cells were transfected with human TRPV1, TRPV2, or TRPV3. eGFP-transfection was used as control. For specific stimulation of TRPV1, 5 μM capsaicin was used. For stimulation of TRPV2, hypotonicity (260 mosmol/L) was used, based on previous reports of TRPV2 being osmotically responsive. N2a cells were not responsive to hypotonicity, and neither were control-transfected cells. For TRPV3-expressing cells, camphor (20% of a commercially available stock solution) was used. […] Stimulation and control protocols were applied as for TRPA1-expressing N2a cells as detailed above in Example 15.

[2] = molecular target: T2, human TRPV3 (Homo sapiens, UniProt Q8NET8); test: Ca2+ signal in N2a cells transfected with human TRPV3; type: cell-based; settings: stimulation with camphor
T2 construct: expressed in transfected cells; host or cells: N2a cells
T2 sequence (Q8NET8 1-790): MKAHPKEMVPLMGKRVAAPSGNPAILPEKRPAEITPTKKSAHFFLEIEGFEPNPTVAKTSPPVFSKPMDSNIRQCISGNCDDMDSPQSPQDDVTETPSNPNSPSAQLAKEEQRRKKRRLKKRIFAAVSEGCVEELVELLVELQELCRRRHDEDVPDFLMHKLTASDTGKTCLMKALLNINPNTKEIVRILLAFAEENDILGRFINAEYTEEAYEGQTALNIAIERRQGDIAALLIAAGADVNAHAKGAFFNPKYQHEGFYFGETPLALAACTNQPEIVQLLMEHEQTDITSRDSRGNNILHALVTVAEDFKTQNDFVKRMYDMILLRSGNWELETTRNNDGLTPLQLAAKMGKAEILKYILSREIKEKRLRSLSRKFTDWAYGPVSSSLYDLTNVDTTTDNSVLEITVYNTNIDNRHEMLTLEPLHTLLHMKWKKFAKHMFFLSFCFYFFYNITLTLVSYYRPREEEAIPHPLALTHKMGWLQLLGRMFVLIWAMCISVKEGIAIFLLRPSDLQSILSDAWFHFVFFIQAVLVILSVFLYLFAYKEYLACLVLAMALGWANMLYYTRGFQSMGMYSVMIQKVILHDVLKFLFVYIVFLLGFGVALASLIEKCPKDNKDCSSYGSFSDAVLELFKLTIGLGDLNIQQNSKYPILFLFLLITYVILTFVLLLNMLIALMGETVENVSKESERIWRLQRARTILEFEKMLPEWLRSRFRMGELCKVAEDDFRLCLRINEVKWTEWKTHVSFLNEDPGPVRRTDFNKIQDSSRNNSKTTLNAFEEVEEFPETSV
Procedure: as §1

[3] = test system: primary mouse keratinocytes (1° MK); test: UVB-evoked Ca++ signaling in primary mouse keratinocytes (fluo-4 imaging); type: cell-based
Procedure: Ca++ imaging of 1° MK was conducted following routine procedures. For UVB stimulation, a customized device was built. The system comprised a printed circuit board for electrical interconnects and mechanical support and an ultraviolet light-emitting diode (UV LED).
The operating wavelength was 295 nm (FIG. 2A), with a full-width half-max of 12 nm. The optical power was 500 mW. The focal point was aimed at the plane of the upper surface of the quartz coverslip, which was used to minimize UV absorption along the optical path towards the cells (FIG. 2A-FIG. 2C). The optical intensity at the focal point was estimated to be 150 mW/mm^2.
Ca++ imaging of mouse 1° MK in response to chemical activation of TRPV4 was conducted after loading with 2 μM fura2-AM, following a ratiometric Ca2+ imaging protocol with 340/380 nm […] for dual excitation. Ratios of emissions were acquired at 0.5 Hz. ΔR/R0 was determined as the fraction of the increase of a given ratio over baseline ratio, divided by baseline ratio. For stimulation of cells with UVB, where fura-2 was not suitable because of the proximity of stimulation with 340/380 nm and 295 nm, 2 μM fluo4-AM was used instead. Ca++ imaging was carried out at 488 nm excitation, acquisition of emissions at 0.5 Hz, expressed as ΔF/F0. In the custom-built UV optical system, UV LEDs were capped with a ball lens, a transparent optical window in the shape of a hemispherical lens (FIG. 2B). The LED output optical beam focused at 15-20 mm from the lens, with a spot diameter of approximately 1.5-2.0 mm (FIG. 2C). […] The thermal equilibration stage was set for physiological temperature.

[4] = test system: ET1; test: ET1 expression by UVB-exposed 1° MK (immunocytochemistry); type: cell-based, mouse; settings: cells preincubated with inhibitor
Procedure: 1° MK were exposed to UVB using the UV optical system (295 nm LED). 24 hours later the cells were fixed and fluorescently immunolabeled for ET1. Digital images were captured and subjected to morphometry.
Mouse keratinocytes were cultured on collagen coated quartz coverslips and then stimulated from the bottom using the previously mentioned UV optical system using the 295 nm LED. 24 hours later the cells were fixed in 4% formaldehyde in PBS for 20 minutes, permeabilized with 0.1% Triton X-100 in PBS for 10 minutes, washed, then blocked in 10% normal goat serum in PBS for 45 minutes. Coverslips were incubated overnight with primary antibody mouse anti-ET1 (1:200; Abcam), washed three times in PBS and incubated with secondary antibody for 2 hours at 25° C. Coverslips were washed three times in PBS, once with double-distilled H2O. Digital images were captured using a 40× immersion lens on the BX61 Olympus upright microscope. Morphometric analysis was conducted using ImageJ freeware with tailored regions-of-interest.

[5] = Histopathology of UVB-photodermatitis in topically treated paw-pad skin; type: in vivo, mouse; settings: 5 mM GSK205 topical
Procedure: (§2) GSK205 topical treatment: A viscous solution of 68% EtOH/5% glycerol plus 1 mM or 5 mM GSK205 (none for control) was applied to hindpaws by rubbing in 20 μL, applied at time-points 1 hour and again 10 min before UV exposure.

[6] = test system: ET1/Edn1; test: Edn1 mRNA (qPCR) in UVB-exposed paw-pad epidermis after topical treatment; type: in vivo, mouse; settings: 5 mM GSK205 topical; 2 hour and 24 hour time-points
Procedure: as §2

SMILES	Ca2+ transience on TRPV1 stimulation [1]	Ca2+ transience on TRPV3 stimulation [2]	UVB-evoked Ca++ signaling (ΔF/F0) ([3]; GSK205 20 μM)	ET1-augmented, UVB-induced Ca++ transients ([3]; UVB and ET1 co-exposure)	ET1 immunoreactivity [4]	UVB-photodermatitis histopathology (inflammation) [5]	Edn1 mRNA expression after UVB [6]
CN(CCc1ccc(Nc2nc(-c3ccccc3)cs2)cc1)Cc1ccccc1 [Compound 16-8]	not affected	not affected					
CN(CCc1ccc(Nc2nc(-c3cccnc3)cs2)cc1)Cc1ccccc1 [GSK205]			very similar response to that of Trpv4−/− 1° MK; also recorded: strongly down-regulated; also recorded: significant attenuation	greatly diminished	diminished; also recorded: significant down-regulation	virtual elimination of inflammation; also recorded: markedly reduced inflammatory infiltrate	unchanged; also recorded: complete lack of this regulation
